Source: paper PMC6359039, “Pharmacokinetics, Tissue Distribution, Plasma Protein Binding Studies of 10-Dehydroxyl-12-Demethoxy-Conophylline, a Novel Anti-Tumor Candidate, in Rats” (Molecules, 2019)
Entries after “also recorded” stand apart in the source; their conditions may differ. Where two headings read alike, the source gives them in different places.

What was measured:
[1] = Plasma pharmacokinetics in rats after i.v. and i.g. dosing (UPLC-FLR); type: in vivo, Sprague Dawley rats; set-up: CL: unit not given here; conditions: rat; for MRT: Sprague-Dawley; for pharmacokinetic model fit: plasma concentration–time data, DAS 2.0
Protocol: Sprague Dawley rats (half male and female) with a body mass 180–220 g were provided by the Laboratory Animal Center of Medical University of Anhui (Hefei, China), Certificate number: SCXK(wan) 2015-002. Animals were housed under controlled conditions (temperature 22 ± 2 °C, humidity 50% ± 5%, 12 h dark/light cycle) with standardized diet and acclimatized for 7 days, prior to the experiments. All protocols and care of the rats were performed in strict compliance with the Guidelines for the Use of Laboratory Animals (National Research Council) and authorized by the Animal Care and Use Committee of Anhui University of Chinese Medicine.
(§1) Chromatographic separation was performed using a UPLC system (Waters ACQUITY-CLASS. US) with an analytical column Kinetex (C18, 1.7 μm, 2.1 mm × 100 mm; Phenomenex; California; CA, USA) at 25 °C. Water and methanol (75:25) were used as the isocratic elution, running at a flow rate of 0.2 mL/min. The detector was used with fluorescence (FLR) detection with a fluorescence excitation wavelength of 330 nm and a fluorescence emission wavelength of 439 nm.
The rat intravenous doses were determined as 4, 8, and 12 mg/kg, and the intragastric administration dose was 20 mg/kg. These were selected to investigate whether the pharmacokinetics of the drug was linear over the range of doses used. In all, 18 (SD) rats (half male and female) were randomly divided into three groups, namely, high-, medium- and low-dose groups. The rats fasted 12 h be before the administration of 10-dehydroxyl-12-demethoxy-conophylline but with free access to water. 10-dehydroxyl-12-demethoxy-conophylline was dissolved in normal saline and added with 5% ethanol. Amounts of 4, 8, and 12 mg/kg (0.5 mL/100 g) were injected into the tail vein of the rat, and 0.3 mL of blood was taken from the eyelid before administration (0 min) and 2, 5, 15, 30, 60, 90, 120, 180, 240, and 300 min after intravenous administration. Another 6 rats (half male and female) were administered an intragastrical (i.g.) dose of 20 mg/kg. Blood samples (0.3 mL) were collected by retro-orbital bleeding into heparinized 1.5mL tubes before administration (0 min) and 15, 30, 60, 90, 120, 240, 480, and 600 min after intragastric administration. Immediately after collection, the blood samples were centrifuged at 3500 rpm for 10 min to obtain plasma, and originating supernatants were also stored at −70 °C until analysis.
Plasma samples (90 μL) were spiked with 10 μL internal standard (100 ng/mL) and extracted with 300 μL of methanol by vortexing for 10 min. The plasma and aqueous phases were separated by centrifugation at 14,000 rpm for 10 min. The supernatants were transferred to another tube and evaporated to dryness at 50 °C. The residue was dissolved in 100 μL methanol and vortexed. A 2 μL aliquot of the solution was injected into the UPLC system for analysis.
The pharmacokinetic parameters were calculated using the pharmacokinetic software DAS 2.0 (Chinese Pharmacological Association, Beijing, China) by non-compartmental and compartmental analysis method. The elimination half-life (t1/2) was determined by linear regression of the terminal portion (last the points) of the plasma concentration–time curve. The area under the plasma concentration–time curve from zero to the last measurable plasma concentration point (AUC0-t) was calculated using the linear trapezoidal method. Extrapolation from time zero to infinity (AUC0-∞) was calculated as follows:AUC0-∞ = AUC0-t + Ct/ke,(2) where Ct is the last measurable plasma concentration and ke is the terminal elimination rate constant. […]

[2] = Tissue distribution in rats after a single i.v. dose; type: in vivo, Sprague Dawley rats; conditions: rat, single i.v. dose 8 mg/kg
Protocol: as §1
For the tissue concentration study of 10-dehydroxyl-12-demethoxy-conophylline, 18 (SD) rats (half male and female) were randomly divided into three groups. The rats were administered intravenously at a dose of 8 mg/kg of 10-dehydroxyl-12-demethoxy-conophylline, and the rats were euthanized at 5, 20, and 45 min after administration. Samples of their tissues and blood were carefully collected and washed with sodium phosphate buffer (pH 7.4) to remove blood. Each tissue (0.2 g) was homogenized in normal saline (1 mL). Subsequently, an amount 120 μL of the homogenate was pipetted into 480 μL of methanol and vortexed for 3 min, and then centrifuged at 14,000 rpm for 10 min. The supernatant was then centrifuged again at 14,000 rpm for 10 min and stored at −70 °C until analysis. The preparation process for analysis was the same as described above for plasma.

[3] = Plasma protein binding by equilibrium dialysis, rat plasma; type: in vitro ADME; conditions: Sprague Dawley
Protocol: (§2) Protein binding was determined in vitro by equilibrium dialysis of plasma of rats or human serum albumin. Blank dialysate, internal dialysate, and external dialysate were prepared separately. The internal dialysate was prepared by taking 0.4 mL of blank plasma and adding 100 μL of the 10-dehydroxyl-12-demethoxy-conophylline series standard solution to prepare the equivalent of 10-dehydroxyl-12-demethoxy-conophylline plasma concentrations of 0.078, 0.156, 0.312, 0.625, 1.250, 2.500, 5.000, and 20.000 μg/mL simulating biological samples. The external dialysate was prepared by taking 0.4 mL of blank dialysate and adding 100 μL of the 10-dehydroxyl-12-demethoxy-conophylline series standard solution to prepare the equivalent of 10-dehydroxyl-12-demethoxyconophylline plasma concentrations of […] simulating dialysate samples. The protein binding rate of 10-dehydroxyl-12-demethoxy-conophylline in plasma was measured using the equilibrium dialysis method in this experiment. The concentration of unbound compound (B) and bound compound to protein (A) were calculated as follows:F = (A − B)/A,(1) where F is the bounded fraction, A is the compound concentration in the plasma compartment, and B is the concentration of the compound in the phosphate buffer compartment.

[4] = Plasma protein binding by equilibrium dialysis, human plasma; type: in vitro ADME; conditions: read-out: protein binding degree (converted)
Protocol: as §2

HL-60 = system: HL-60; set-up: method as in PMID 29772302; conditions: cited from earlier work
SMMC-7721 = system: SMMC-7721; set-up: method as in PMID 29772302; conditions: cited from earlier work
A-549 = system: A-549; set-up: method as in PMID 29772302; conditions: cited from earlier work
MCF-7 = system: MCF-7; set-up: method as in PMID 29772302; conditions: cited from earlier work
SW480 = system: SW480; set-up: method as in PMID 29772302; conditions: cited from earlier work
[5] = both sexes, Sprague Dawley, plasma, iv, 4 mg/kg i.v., mean ± SD, n = 6
[6] = both sexes, Sprague Dawley, plasma, iv, 8 mg/kg i.v., mean ± SD, n = 6
[7] = both sexes, Sprague Dawley, plasma, iv, 12 mg/kg i.v., mean ± SD, n = 6
[8] = both sexes, Sprague Dawley, plasma, po, 20 mg/kg i.g., mean ± SD, n = 6
[9] = 12 mg/kg i.v., mean ± SD, n = 6
[10] = 20 mg/kg i.g., mean ± SD, n = 6

CC[C@@]12CC(C(=O)OC)=C3Nc4cc5c(cc4[C@@]34CCN(C[C@H]3O[C@H]31)[C@@H]24)[C@@H]1C(O5)[C@@H](O)[C@@]2(CC)CC(C(=O)OC)=C3Nc4cc(OC)ccc4[C@@]34CCN1[C@@H]24 (stereo partly shown) [10-dehydroxyl-12-demethoxy-conophylline, 10-Dehydroxyl-12-demethoxy-conophylline]
AUC(0-inf) ([1]; both sexes, Sprague Dawley, plasma, iv, 4 mg/kg i.v.): 1140 ng·h/mL | AUC(0-t) [1, 5]: 988 ng·h/mL | clearance [1, 5]: 41 ± 70 mL/min/kg | AUC(0-inf) [1, 6]: 2190 ng·h/mL | AUC(0-t) [1, 6]: 2150 ng·h/mL | clearance [1, 6]: 39 ± 120 mL/min/kg | AUC(0-inf) ([1]; both sexes, Sprague Dawley, plasma, iv, 12 mg/kg i.v.): 5090 ng·h/mL | AUC(0-t) [1, 7]: 3910 ng·h/mL | clearance [1, 7]: 41 ± 50 mL/min/kg | bioavailability ([1]; both sexes, Sprague Dawley, plasma, oral, 20 mg/kg i.g. versus i.v., read-out: absolute oral bioavailability): 15.8% | AUC(0-inf) [1, 8]: 1240 ng·h/mL | AUC(0-t) [1, 8]: 867 ng·h/mL | Tmax ([1]; both sexes, Sprague Dawley, plasma, iv, 4 mg/kg, 4 mg/kg i.v., mean ± SD, n = 6): 0.0333 h | half-life ([1]; both sexes, Sprague Dawley, plasma, iv, 4 mg/kg, 4 mg/kg i.v., mean ± SD, n = 6, read-out: t1/2β): 1.14 ± 0.0548 h | Tmax ([1]; both sexes, Sprague Dawley, plasma, iv, 8 mg/kg, 8 mg/kg i.v., mean ± SD, n = 6): 0.0333 h | half-life ([1]; both sexes, Sprague Dawley, plasma, iv, 8 mg/kg, 8 mg/kg i.v., mean ± SD, n = 6, read-out: t1/2β): 1.11 ± 0.0759 h | Tmax ([1]; both sexes, Sprague Dawley, plasma, iv, 12 mg/kg, 12 mg/kg i.v., mean ± SD, n = 6): 0.0333 h | half-life ([1]; both sexes, Sprague Dawley, plasma, iv, 12 mg/kg, 12 mg/kg i.v., mean ± SD, n = 6, read-out: t1/2β): 1.16 ± 0.0721 h | half-life ([1]; both sexes, Sprague Dawley, plasma, iv, 12 mg/kg, i.v. dosing at 4, 8 and 12 mg/kg, read-out: half-life t1/2α of intravenous administration): ~0.117 h | half-life ([1]; both sexes, Sprague Dawley, plasma, iv, 12 mg/kg, i.v. dosing at 4, 8 and 12 mg/kg, read-out: t1/2β of intravenous administration): ~1.15 h | Tmax ([1]; both sexes, Sprague Dawley, plasma, po, 20 mg/kg, 20 mg/kg i.g., mean ± SD, n = 6): ~1.5 h | half-life ([1]; both sexes, Sprague Dawley, plasma, po, 20 mg/kg, 20 mg/kg i.g., mean ± SD, n = 6, read-out: t1/2β): 1.17 ± 0.0447 h | MRT ([1]; both sexes, plasma, iv, 4 mg/kg i.v., mean ± SD, n = 6): 1.52 h | MRT ([1]; both sexes, plasma, iv, 8 mg/kg i.v., mean ± SD, n = 6): 1.42 h | MRT ([1]; both sexes, plasma, iv, 12 mg/kg i.v., mean ± SD, n = 6): 1.36 h | MRT ([1]; both sexes, plasma, po, 20 mg/kg i.g., mean ± SD, n = 6): 4.28 h | AUC0–∞ ([1]; 4 mg/kg i.v., mean ± SD, n = 6): 68.478 ± 8.167 µg·min/mL | V ([1]; 4 mg/kg i.v., mean ± SD, n = 6): 2.096 ± 0.0465 L/kg | t1/2α ([1]; 4 mg/kg i.v., mean ± SD, n = 6): 0.1164 ± 0.03832 h | V ([1]; 8 mg/kg i.v., mean ± SD, n = 6): 1.906 ± 0.012 L/kg | t1/2α ([1]; 8 mg/kg i.v., mean ± SD, n = 6): 0.1185 ± 0.0318 h | AUC0–∞ [1, 9]: 305.616 ± 17.432 µg·min/mL | V [1, 9]: 2.014 ± 0.019 L/kg | t1/2α [1, 9]: 0.1174 ± 0.03417 h | CL [1, 10]: 0.046 ± 0.013 | V [1, 10]: 4.881 ± 2.390 L/kg | t1/2α [1, 10]: 0.87358 ± 0.032 h | t1/2β of intravenous administration ([1]; i.v. dosing at 4, 8 and 12 mg/kg): about 68 min | pharmacokinetic model fit [1]: fit to a two-room model | pharmacokinetic model fit ([1]; listed as 10-dehydroxyl-12-demethoxyconophylline): consistent with a two-compartment pharmacokinetic model | linear correlation between AUC0→t and dose (r) ([1]; single i.v. dose 4, 8 and 12 mg/kg): 0.9821 | concentration in the brain [2]: kept to a small amount | tissue distribution at 5 min ([2]; 5 min): in the heart and kidney were markedly higher than in other tissues | tissue distribution at 20 min ([2]; 20 min (equilibrium time)): the drug concentration in the lung reached the highest at this time | tissue distribution at 45 min ([2]; 45 min (elimination period)): mainly distributed in the liver and kidney tissues | tissue distribution, tissues with highest levels ([2]; overall, 8 mg/kg): detected in all examined tissues with the highest in kidney, liver, and lung; also recorded: the distribution in the kidney and lung is the highest | fraction unbound at 1 µg/mL ([3]; 1.00 µg/mL, equilibrium dialysis, read-out: protein binding degree (converted)): 0.181 | fraction unbound at 2.5 µg/mL ([3]; 2.50 µg/mL, equilibrium dialysis, read-out: protein binding degree (converted)): 0.174 | fraction unbound at 5 µg/mL ([3]; 5.00 µg/mL, equilibrium dialysis, read-out: protein binding degree (converted)): 0.188 | fraction unbound ([3]; rat, three concentrations (1.00, 2.50 and 5.00 µg/mL), summary in abstract, read-out: protein binding degree): < 0.2 | fraction unbound at 1 µg/mL ([4]; 1.00 µg/mL): 0.131 | fraction unbound at 2.5 µg/mL ([4]; 2.50 µg/mL): 0.159 | fraction unbound at 5 µg/mL ([4]; 5.00 µg/mL): 0.153 | inhibitory activity on HL-60 tumor cell line (HL-60): significant inhibitory activity | inhibitory activity on SMMC-7721 tumor cell line (SMMC-7721): significant inhibitory activity | inhibitory activity on A-549 tumor cell line (A-549): significant inhibitory activity | inhibitory activity on MCF-7 tumor cell line (MCF-7): significant inhibitory activity | inhibitory activity on SW480 tumor cell line (SW480): significant inhibitory activity
